Results reported in patent publication US20080051457A1, “Optically Active Phthalamide Derivative, Agricultural or Horticultural Insecticide, and Method of Using the Same” (priority 2004, published 2008).

System: Diamond Back Moth (Plutella xylostella)
Assay: Test Example 1: insecticidal activity on diamond back moth, cabbage leaf disc dip
Type: in vivo
Conditions: foliar, 192 h, third instar larvae, eight days after the inoculation, read-out: insecticidal activity judged from mortality
Excerpt: (§1) A cabbage leaf disc (variety: Shikidori) cut into 7 cm-diameter was dipped for about 30 seconds into a chemical solution prepared by diluting a preparation containing each compound listed in Tables 1 and 2 as an active ingredient to adjust the concentration to 50 ppm. After dried, it was put into a plastic Petri dish with a diameter of 9 cm and inoculated with ten of the third instar larvae of diamond back moths. Eight days after the inoculation, the dead and alive larvae were counted. The mortality was calculated according to the following equation and the insecticidal activity was judged according to the criterion shown below. The test was carried out with three replications under the condition of 25° C., 50-60% RH and 16L-8D photoperiod. [formula]

SMILES | mortality at 50 ppm [%]
CSC[C@H](C)NC(=O)c1c(I)cccc1C(=O)Nc1ccc(OC(F)(F)F)cc1C [Compound 1-42, (S)-3-iodo-N^1-(2-methyl-4-trifluoromethoxyphenyl)-N^2-(1-methyl-2-methylthioethyl)phthalamide] | 100
Cc1cc(OC(F)(F)F)ccc1NC(=O)c1cccc(I)c1C(=O)N[C@@H](C)CS(C)(=O)=O [Compound 1-44, (S)-3-iodo-N′-(2-methyl-4-trifluoromethoxyphenyl)-N^2— (1-methyl-2-methylsulfonylethyl)phthalamide] | 100

System: Common White (Pieris Rapae)
Assay: Comparative Test 2: control of common white on cabbage by prick-in-hole application at transplanting
Type: in vivo
Conditions: Dosage 10 mgAI/plant, 27 days after the transplanting
Protocol: An agent containing, as an active ingredient (AI), each of the compounds shown in the table and a comparative compound 1 (the compound with Compound No. 216 described in JP-A-2001-131141), was put into a prick-in-hole on the ground, and then cabbage seedlings (Variety: YR Seitoku) transplanted onto the treated hole (at the end of April). 27 days after the transplanting, the number of larvae of common white was counted. The control value was calculated according to the expression indicated below, and it was then evaluated in accordance with the criterion noted in Comparative test 1 above. One test group consisted of 20 cabbage loaves. [formula]

SMILES | Evaluation of control value (27 days later)
Cc1cc(C(F)(C(F)(F)F)C(F)(F)F)ccc1NC(=O)c1cccc(I)c1C(=O)N[C@@H](C)C[S+](C)[O-] (some centres unmarked) [Compound 1-4] | 10 (Mortality 91%-100%)
Cc1cc(C(F)(C(F)(F)F)C(F)(F)F)ccc1NC(=O)c1cccc(Br)c1C(=O)N[C@@H](C)CS(C)(=O)=O [Compound 1-74] | 10 (Mortality 91%-100%)
Cc1cc(C(F)(C(F)(F)F)C(F)(F)F)ccc1NC(=O)c1cccc(I)c1C(=O)N[C@@H](C)CS(C)(=O)=O [Compound 1-5] | 10 (Mortality 91%-100%)
Cc1cc(C(F)(C(F)(F)F)C(F)(F)F)ccc1NC(=O)c1cccc(Cl)c1C(=O)N[C@@H](C)CS(C)(=O)=O [Compound 1-77] | 10 (Mortality 91%-100%)

System: Common Cutworm (Spodoptera litura)
Assay: Test Example 2: insecticidal activity on common cutworm, cabbage leaf disc dip
Type: in vivo
Conditions: foliar, 192 h, second instar larvae, eight days after the inoculation, read-out: insecticidal activity judged from mortality
Excerpt: as §1, with “second” for “third”, “common cutworm.” for “diamond back moths.”, “calculated” for “calculated according to the following equation”, “in” for “according to”, “same manner as in Test Example 1.” for “criterion shown below.”, “photoperiod.” for “photoperiod. [formula]”

SMILES | mortality at 50 ppm [%]
CSC[C@H](C)NC(=O)c1c(I)cccc1C(=O)Nc1ccc(OC(F)(F)F)cc1C [Compound 1-42, (S)-3-iodo-N^1-(2-methyl-4-trifluoromethoxyphenyl)-N^2-(1-methyl-2-methylthioethyl)phthalamide] | 100
Cc1cc(OC(F)(F)F)ccc1NC(=O)c1cccc(I)c1C(=O)N[C@@H](C)CS(C)(=O)=O [Compound 1-44, (S)-3-iodo-N′-(2-methyl-4-trifluoromethoxyphenyl)-N^2— (1-methyl-2-methylsulfonylethyl)phthalamide] | 100

System: not listed separately
Assay: logP (pH2.3), physical properties of Tables 1 to 3
Type: physicochemical
Conditions: not given
Excerpt: However, the present invention is not limited to these compounds. In the tables, the term “physical properties” means a melting point or logp. The symbol “Me” represents a methyl group, “Et” represents an ethyl group, “Pr” represents a propyl group, “-n” represents normal, and “-i” represents iso.

SMILES | Physical properties logP(pH2.3)
Cc1cc(C(F)(C(F)(F)F)C(F)(F)F)ccc1NC(=O)c1cccc(Br)c1C(=O)N[C@@H](CC(C)C)CS(C)(=O)=O [Compound 1-362] | 3.82
CSC[C@H](CC(C)C)NC(=O)c1c(Br)cccc1C(=O)Nc1ccc(C(F)(C(F)(F)F)C(F)(F)F)cc1C [Compound 1-360] | 5.16
Cc1cc(C(F)(C(F)(F)F)C(F)(F)F)ccc1NC(=O)c1cccc(Cl)c1C(=O)N[C@H](CS(C)(=O)=O)C(C)C [Compound 1-350] | 3.54
CSC[C@H](CC(C)C)NC(=O)c1c(Cl)cccc1C(=O)Nc1ccc(C(F)(C(F)(F)F)C(F)(F)F)cc1C [Compound 1-357] | 5.11
CC[C@@H](CSC)NC(=O)c1c(Br)cccc1C(=O)Nc1ccc(C(F)(C(F)(F)F)C(F)(F)F)cc1C [Compound 1-342] | 4.54
CSC[C@@H](NC(=O)c1c(I)cccc1C(=O)Nc1ccc(C(F)(C(F)(F)F)C(F)(F)F)cc1C)C(C)C [Compound 1-354] | 4.97
Cc1cc(C(F)(C(F)(F)F)C(F)(F)F)ccc1NC(=O)c1cccc(Cl)c1C(=O)N[C@@H](CC(C)C)CS(C)(=O)=O [Compound 1-359] | 3.77

Same assay, conditions: Table 1

Physical properties: logP | SMILES
3.19 | CCS(=O)(=O)C[C@H](C)NC(=O)c1c(Br)cccc1C(=O)Nc1ccc(C(F)(F)C(F)(F)F)c(Cl)c1C [Compound 1-176]
4.26 | CCSC[C@H](C)NC(=O)c1c(I)cccc1C(=O)Nc1cc(F)c(OC(F)(F)F)cc1Cl [Compound 1-117]
4.03 | CSC[C@H](C)NC(=O)c1c(I)cccc1C(=O)Nc1ccc(C(F)(F)C(F)(F)F)c(F)c1C [Compound 1-135]
3.90 | CCSC[C@H](C)NC(=O)c1c(I)cccc1C(=O)Nc1ccc(C(F)(F)F)c(F)c1C [Compound 1-126]
3.42 | CSC[C@H](C)NC(=O)c1c(I)cccc1C(=O)Nc1ccc(I)c(F)c1C [Compound 1-150]
3.55 | CSC[C@H](C)NC(=O)c1c(I)cccc1C(=O)Nc1ccc(Br)c(Br)c1C [Compound 1-153]
3.15 | CCS(=O)(=O)C[C@H](C)NC(=O)c1c(I)cccc1C(=O)Nc1ccc(C(F)(F)C(F)(F)F)c(F)c1C [Compound 1-110]
3.26 | CCc1cc(C(F)(C(F)(F)F)C(F)(F)F)ccc1NC(=O)c1cccc(Cl)c1C(=O)N[C@@H](C)CS(C)(=O)=O [Compound 1-218]
3.88 | CSC[C@H](C)NC(=O)c1c(Cl)cccc1C(=O)Nc1ccc(C(F)(F)C(F)(F)F)c(F)c1C [Compound 1-213]
2.74 | CCS(=O)(=O)C[C@H](C)NC(=O)c1c(I)cccc1C(=O)Nc1ccc(C(F)(F)F)c(F)c1C [Compound 1-128]
4.63 | CCSC[C@H](C)NC(=O)c1c(Br)cccc1C(=O)Nc1ccc(C(F)(C(F)(F)F)C(F)(F)F)c(F)c1C [Compound 1-198]
4.43 | CCSC[C@H](C)NC(=O)c1c(Br)cccc1C(=O)Nc1ccc(C(F)(F)C(F)(F)F)c(Cl)c1C [Compound 1-174]
2.59 | CC[S+]([O-])C[C@H](C)NC(=O)c1c(Br)cccc1C(=O)Nc1ccc(C(F)(F)C(F)(F)F)c(F)c1C (some centres unmarked) [Compound 1-172]
3.65 | CCSC[C@H](C)NC(=O)c1c(I)cccc1C(=O)Nc1ccc(Br)c(F)c1C [Compound 1-120]
3.31 | CCc1cc(C(F)(C(F)(F)F)C(F)(F)F)ccc1NC(=O)c1cccc(Br)c1C(=O)N[C@@H](C)CS(C)(=O)=O [Compound 1-221]
4.36 | CCc1cc(C(F)(C(F)(F)F)C(F)(F)F)ccc1NC(=O)c1cccc(Cl)c1C(=O)N[C@@H](C)CSC [Compound 1-216]
3.01 | CCS(=O)(=O)C[C@H](C)NC(=O)c1c(Cl)cccc1C(=O)Nc1ccc(C(F)(F)C(F)(F)F)c(F)c1C [Compound 1-209]
4.31 | CSC[C@H](C)NC(=O)c1c(Br)cccc1C(=O)Nc1ccc(C(F)(C(F)(F)F)C(F)(F)F)c(F)c1C [Compound 1-168]
4.18 | CCSC[C@H](C)NC(=O)c1c(Br)cccc1C(=O)Nc1cc(F)c(OC(F)(F)F)cc1Br [Compound 1-195]
4.42 | CCc1cc(C(F)(C(F)(F)F)C(F)(F)F)ccc1NC(=O)c1cccc(Br)c1C(=O)N[C@@H](C)CSC [Compound 1-219]
